# Results published in PubChem BioAssay AID226 (DTP/NCI, 2004).
# Several values for one entry are separate records, joined by “and”; a condition that tells them apart may be missing. Identical values can stand only once. Inconclusive results and toxic doses are left out.
# Tested on: B6C3F1 mice, intracerebral ependymoblastoma, median survival T/C
# Assay: NCI In Vivo Anticancer Drug Screen. Data for tumor model Ependymoblastoma (intracerebral) in B6C3F1 mice
# Settings: endpoint: median survival time, higher = longer survival
# Protocol: The antitumor activity of compounds was measured in mice bearing transplantable tumors. Survival or tumor size were measured and the results are expressed as the measurement made in the treated group (T) divided by the measurement made in the vehicle treated control group (C). The tumor model used in this assay is Ependymoblastoma (intracerebral) in B6C3F1 mice
# [1] = dose: 64.0 mg/kg/injection, schedule: Q01DX005 (ip), vehicle: Klucel (hydroxypropylcellulose) (HPC)
# [2] = dose: 8.0 mg/kg/injection, schedule: Q01DX005 (ip), vehicle: saline
smiles,measurement,setting,value
OC(C1CO1)C(O)C1CO1 (stereo not drawn),T/C,"dose: 0.25 mg/kg/injection, schedule: Q01DX005 (ip), vehicle: saline",112 % of control
same,T/C,"dose: 0.5 mg/kg/injection, schedule: Q01DX005 (ip), vehicle: water",115 % of control
same,T/C,"dose: 1.0 mg/kg/injection, schedule: Q01DX001 (ip), vehicle: saline",94 % of control and 121 % of control
same,T/C,"dose: 1.0 mg/kg/injection, schedule: Q01DX005 (ip), vehicle: water",112 % of control
same,T/C,"dose: 1.0 mg/kg/injection, schedule: Q#A X002 (ip), vehicle: water",105 % of control
same,T/C,"dose: 2.0 mg/kg/injection, schedule: Q01DX001 (ip), vehicle: saline",113 % of control
same,T/C,"dose: 2.0 mg/kg/injection, schedule: Q01DX001 (ip), vehicle: water",105 % of control and 110 % of control and 118 % of control
same,T/C,"dose: 2.0 mg/kg/injection, schedule: Q01DX005 (ip), vehicle: water",124 % of control
same,T/C,"dose: 2.0 mg/kg/injection, schedule: Q#A X002 (ip), vehicle: water",112 % of control
same,T/C,"dose: 4.0 mg/kg/injection, schedule: Q01DX001 (ip), vehicle: saline",113 % of control
same,T/C,"dose: 4.0 mg/kg/injection, schedule: Q01DX001 (ip), vehicle: water",116 % of control and 117 % of control
same,T/C,"dose: 4.0 mg/kg/injection, schedule: Q01DX005 (ip), vehicle: water",181 % of control
same,T/C,"dose: 8.0 mg/kg/injection, schedule: Q01DX001 (ip), vehicle: saline",113 % of control
same,T/C,"dose: 8.0 mg/kg/injection, schedule: Q01DX001 (ip), vehicle: water",151 % of control
same,T/C,"dose: 8.0 mg/kg/injection, schedule: Q#A X002 (ip), vehicle: water",175 % of control
same,T/C,"dose: 16.0 mg/kg/injection, schedule: Q01DX001 (ip), vehicle: saline",150 % of control and 166 % of control
same,T/C,"dose: 16.0 mg/kg/injection, schedule: Q01DX001 (ip), vehicle: water",175 % of control
COCC(O)Cn1ccnc1[N+](=O)[O-] (stereo not drawn),T/C,"dose: 32.0 mg/kg/injection, schedule: Q01DX005 (ip), vehicle: Klucel (hydroxypropylcellulose) (HPC)",97 % of control
same,T/C,[1],96 % of control
same,T/C,"dose: 100.0 mg/kg/injection, schedule: Q01DX005 (ip), vehicle: saline with Tween-80",97 % of control and 111 % of control
same,T/C,"dose: 100.0 mg/kg/injection, schedule: Q01DX009 (ip), vehicle: saline with Tween-80",91 % of control and 112 % of control
same,T/C,"dose: 100.0 mg/kg/injection, schedule: Q12HX010 (ip), vehicle: saline with Tween-80",109 % of control
same,T/C,"dose: 100.0 mg/kg/injection, schedule: Q#A X010 (ip), vehicle: saline with Tween-80",167 % of control
same,T/C,"dose: 100.0 mg/kg/injection, schedule: Q#ADX018 (ip), vehicle: saline with Tween-80",86 % of control
same,T/C,"dose: 128.0 mg/kg/injection, schedule: Q01DX005 (ip), vehicle: Klucel (hydroxypropylcellulose) (HPC)",93 % of control
same,T/C,"dose: 200.0 mg/kg/injection, schedule: Q01DX005 (ip), vehicle: saline with Tween-80",106 % of control and 88 % of control
same,T/C,"dose: 200.0 mg/kg/injection, schedule: Q01DX009 (ip), vehicle: saline with Tween-80",94 % of control and 107 % of control
same,T/C,"dose: 200.0 mg/kg/injection, schedule: Q12HX010 (ip), vehicle: saline with Tween-80",118 % of control
same,T/C,"dose: 200.0 mg/kg/injection, schedule: Q#A X010 (ip), vehicle: saline with Tween-80",172 % of control
same,T/C,"dose: 200.0 mg/kg/injection, schedule: Q#ADX018 (ip), vehicle: saline with Tween-80",94 % of control
same,T/C,"dose: 256.0 mg/kg/injection, schedule: Q01DX005 (ip), vehicle: Klucel (hydroxypropylcellulose) (HPC)",92 % of control
same,T/C,"dose: 400.0 mg/kg/injection, schedule: Q01DX005 (ip), vehicle: saline with Tween-80",92 % of control and 105 % of control
same,T/C,"dose: 400.0 mg/kg/injection, schedule: Q01DX009 (ip), vehicle: saline with Tween-80",96 % of control and 98 % of control
same,T/C,"dose: 400.0 mg/kg/injection, schedule: Q12HX010 (ip), vehicle: saline with Tween-80",117 % of control
same,T/C,"dose: 400.0 mg/kg/injection, schedule: Q#A X010 (ip), vehicle: saline with Tween-80",167 % of control
same,T/C,"dose: 400.0 mg/kg/injection, schedule: Q#ADX018 (ip), vehicle: saline with Tween-80",100 % of control
same,T/C,"dose: 512.0 mg/kg/injection, schedule: Q01DX005 (ip), vehicle: Klucel (hydroxypropylcellulose) (HPC)",96 % of control
same,T/C,"dose: 800.0 mg/kg/injection, schedule: Q01DX005 (ip), vehicle: saline with Tween-80",101 % of control
same,T/C,"dose: 800.0 mg/kg/injection, schedule: Q01DX009 (ip), vehicle: saline with Tween-80",103 % of control and 104 % of control
same,T/C,"dose: 800.0 mg/kg/injection, schedule: Q12HX010 (ip), vehicle: saline with Tween-80",99 % of control
same,T/C,"dose: 800.0 mg/kg/injection, schedule: Q#A X010 (ip), vehicle: saline with Tween-80",165 % of control
same,T/C,"dose: 800.0 mg/kg/injection, schedule: Q#ADX018 (ip), vehicle: saline with Tween-80",94 % of control
CC1(C)OCC(CO)(Nc2nc(N3CC3)nc(N3CC3)n2)CO1,T/C,"dose: 1.25 mg/kg/injection, schedule: Q01DX005 (ip), vehicle: suspension in saline",105 % of control
same,T/C,"dose: 2.5 mg/kg/injection, schedule: Q01DX005 (ip), vehicle: suspension in saline",103 % of control
same,T/C,"dose: 5.0 mg/kg/injection, schedule: Q01DX005 (ip), vehicle: suspension in saline",113 % of control
S=P(N1CC1)(N1CC1)N1CC1,T/C,[2],169 % of control
CC(=O)OCC1OC(n2cnc3c(=S)nc[nH]c32)C(OC(C)=O)C1OC(C)=O (stereo not drawn),T/C,"dose: 50.0 mg/kg/injection, schedule: Q01DX005 (ip), vehicle: suspension in saline",100 % of control
same,T/C,"dose: 100.0 mg/kg/injection, schedule: Q01DX005 (ip), vehicle: suspension in saline",111 % of control
same,T/C,"dose: 200.0 mg/kg/injection, schedule: Q01DX005 (ip), vehicle: suspension in saline",108 % of control
COc1cc2c(c3c1c(=O)c1ccccc1n3C)C=CC(C)(C)O2,T/C,[1],114 % of control
same,T/C,"dose: 128.0 mg/kg/injection, schedule: Q01DX005 (ip), vehicle: suspension in saline",108 % of control
same,T/C,"dose: 256.0 mg/kg/injection, schedule: Q01DX005 (ip), vehicle: suspension in saline",120 % of control
O=c1[nH]c(=O)n([C@H]2CCCO2)cc1F,T/C,"dose: 8.0 mg/kg/injection, schedule: Q01DX005 (ip), vehicle: saline with Tween-80",98 % of control and 100 % of control
same,T/C,[2],92 % of control
same,T/C,"dose: 16.0 mg/kg/injection, schedule: Q01DX005 (ip), vehicle: saline with Tween-80",93 % of control and 104 % of control
same,T/C,"dose: 16.0 mg/kg/injection, schedule: Q01DX005 (ip), vehicle: saline",91 % of control
same,T/C,"dose: 32.0 mg/kg/injection, schedule: Q01DX005 (ip), vehicle: saline with Tween-80",106 % of control and 109 % of control
same,T/C,"dose: 32.0 mg/kg/injection, schedule: Q01DX005 (ip), vehicle: saline",92 % of control and 96 % of control
same,T/C,"dose: 64.0 mg/kg/injection, schedule: Q01DX005 (ip), vehicle: saline with Tween-80",104 % of control and 105 % of control
same,T/C,"dose: 64.0 mg/kg/injection, schedule: Q01DX005 (ip), vehicle: saline",93 % of control and 103 % of control
same,T/C,"dose: 128.0 mg/kg/injection, schedule: Q01DX005 (ip), vehicle: saline with Tween-80",100 % of control and 119 % of control
same,T/C,"dose: 128.0 mg/kg/injection, schedule: Q01DX005 (ip), vehicle: saline",93 % of control and 110 % of control
same,T/C,"dose: 256.0 mg/kg/injection, schedule: Q01DX005 (ip), vehicle: saline with Tween-80",124 % of control
COc1ccc2c(c1OC(C)=O)-c1cc(OC(C)=O)cc3c1C(C2)N(C(=O)CN(CCCl)CCCl)CC3 (stereo not drawn),T/C,"dose: 12.5 mg/kg/injection, schedule: Q01DX005 (ip), vehicle: DMSO",108 % of control
CC1CN1C(=O)NCCCCCCNC(=O)N1CC1C (stereo not drawn),T/C,"dose: 1.25 mg/kg/injection, schedule: Q01DX005 (ip), vehicle: Klucel (hydroxypropylcellulose) (HPC)",105 % of control
same,T/C,"dose: 2.5 mg/kg/injection, schedule: Q01DX005 (ip), vehicle: Klucel (hydroxypropylcellulose) (HPC)",108 % of control
same,T/C,"dose: 5.0 mg/kg/injection, schedule: Q01DX005 (ip), vehicle: Klucel (hydroxypropylcellulose) (HPC)",120 % of control
same,T/C,"dose: 10.0 mg/kg/injection, schedule: Q01DX005 (ip), vehicle: Klucel (hydroxypropylcellulose) (HPC)",109 % of control
